Assay results as given in EP0278940A2, “Hepatitis B virus surface antigens and hybrid antigens containing them” (SMITHKLINE BIOLOGICALS S.A., priority 1987, dated 1988).

Tested on: synthetic preS2 peptide
Test: Immunogenicity in mice: anti-preS2 antibodies by solid phase RIA on synthetic preS2 peptide
Format: in vivo, mice: Balb/c (H₂-d) and NMRl (H₂-Q)
Details: Balb/c and NMRl mice, I.P., one month, pooled sera
Experimental: The immunogenicity of particles prepared from extracts of cells containing pRIT12660 (Example 16) was studied in 2 strains of mice: Balb/c (H₂-d) and NMRl (H₂-Q). The particles were absorbed on Al(OH)₃ before injection and the mice (5 mice/group) were injected intraperitoneally (I.P.) with 0.3 µg of RIA reacting material. One month after the immunization, the mice were bled and the sera from the mice of the same group were pooled. The titer of anti-S antibodies was determined in the pools by using the AUSAB kit (Abbott Labs) and the WHO reference. The titers were converted in mIU/ml by using the Hollinger formula (Hollinger et al., in Szmuness et al., eds. Viral Hepatitis, Philadelphia : Franklin Institute Press, 451-466, 1982). The anti-preS2 antibodies were determined using a solid phase assay (RIA) in which the synthetic preS2 peptide given in Example 23, is absorbed on plastic and bound antibodies were detected with a goat anti-mouse IgG labelled with ¹²⁵I. […] PreS determinants enhance the response to the S determinants. This enhancing effect is not shown if the preS2 synthetic peptide is injected together with particles which lack the preS2.

CSCC[C@H](N)C(=O)N[C@@H](CCC(=O)O)C(=O)N[C@@H](Cc1c[nH]c2ccccc12)C(=O)N[C@@H](CC(N)=O)C(=O)N[C@@H](CO)C(=O)N[C@H](C(=O)N[C@@H](C)C(=O)N[C@@H](Cc1ccccc1)C(=O)N[C@@H](Cc1c[nH]cn1)C(=O)N[C@@H](CCC(N)=O)C(=O)N[C@@H](C)C(=O)N[C@@H](CC(C)C)C(=O)N[C@@H](CCC(N)=O)C(=O)N[C@@H](CC(=O)O)C(=O)N1CCC[C@H]1C(=O)N[C@@H](CCCNC(=N)N)C(=O)N[C@H](C(=O)N[C@@H](CCCNC(=N)N)C(=O)NCC(=O)N[C@@H](CC(C)C)C(=O)N[C@@H](Cc1ccc(O)cc1)C(=O)N[C@@H](CC(C)C)C(=O)N1CCC[C@H]1C(=O)N[C@@H](C)C(=O)NCC(=O)N[C@@H](CS)C(=O)O)C(C)C)[C@@H](C)O [preS2 synthetic peptide]
induction of anti-preS2 peptide antibodies: unable to elicit anti-preS2 antibodies
